Laboratory results reported in US20140142185A1, “3-Benzyloxyphenyloxoacetic Acid Compounds for Reducing Uric Acid” (priority 2011, published 2014).

Molecular target: T1, Human URAT1 (Homo sapiens, UniProt Q96S37)
T1 construct: The full-length hURAT1 cDNA was obtained from the vector pCMV6-XL5 and subcloned into the expression vector pCMV6-Neo
T1 sequence (Q96S37 1-553): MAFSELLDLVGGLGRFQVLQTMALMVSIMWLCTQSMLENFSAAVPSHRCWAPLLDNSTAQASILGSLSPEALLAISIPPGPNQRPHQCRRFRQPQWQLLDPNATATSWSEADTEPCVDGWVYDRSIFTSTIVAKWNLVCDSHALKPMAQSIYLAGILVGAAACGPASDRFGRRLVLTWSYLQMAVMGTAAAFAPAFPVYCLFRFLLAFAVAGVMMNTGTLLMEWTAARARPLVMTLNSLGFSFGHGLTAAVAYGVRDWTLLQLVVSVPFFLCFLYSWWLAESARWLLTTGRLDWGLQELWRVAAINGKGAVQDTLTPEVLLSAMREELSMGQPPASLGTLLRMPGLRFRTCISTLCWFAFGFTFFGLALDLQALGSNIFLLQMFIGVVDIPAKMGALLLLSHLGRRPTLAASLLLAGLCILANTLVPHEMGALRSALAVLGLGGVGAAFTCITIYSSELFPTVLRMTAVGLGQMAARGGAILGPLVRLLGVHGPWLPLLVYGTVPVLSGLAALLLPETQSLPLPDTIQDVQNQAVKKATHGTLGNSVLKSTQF
Assay: URAT1 inhibition assay: [8-14C] urate uptake in hURAT1-expressing HEK293 cells
Assay type: cell-based
Conditions: for inhibition at 10 µM: Human URAT1-Expressing HEK293 cells, 50 μM [8-14C] urate, 5 min, read-out: % Inhibition of uric acid uptake
Protocol: An in vitro URAT1 assay is useful for identifying compounds with potential activity in lowering serum uric acid. A suitable assay involves transfection of cells (e.g. human embryonic kidney cells; “HEK”) with a vector encoding human URAT1, followed by determination of the ability of transfected cells to take up radiolabeled uric acid. The activity of compounds as URAT1 inhibitors is evaluated by their ability to block uric acid uptake by transfected cells.
Plasmid vector pCMV6-XL5 containing hURAT1 cDNA (Cat. No. SC125624) and the expression vector pCMV6-Neo (Cat. No. pCMVNEO) were obtained from OriGene Technologies, Inc. The full-length hURAT1 cDNA was obtained from the vector pCMV6-XL5 and subcloned into the expression vector pCMV6-Neo to create the hURAT1 expression plasmid pCMV6-hURAT1. The sequences were verified by automatic DNA sequencing.
Human embryonic kidney 293 (HEK) cells (ATTCC, Cat No. CRL-1573) were cultured in EMEM supplemented with 10% FBS and 2 mM L-glutamine and incubated at 37° C. and 5% CO2. For transfection experiments, cells were plated on 60 mm dishes in 1 ml media per dish. After an 18-24 hour incubation, cells were transfected with plasmid pCMV6-hURAT1 or the expression vector pCMV6-Neo, using the Lipofectin trasfection agent following the manufacturer's instructions (Invitrogen, Cat. No. 18292). After transfection cells were grown in EMEM media for 72 hours and then by adding 1 mg/ml Geneticin (GIBCO, Cat. No 10131) stable transfectants were selected. […]
hURAT1-HEK cells and mock-HEK cells were plated in poly-D-Lysine Cell culture 24 well plates (Becton Dickinson, Cat. No. 354414) at a concentration of 3×10^5 in EMEM medium and incubated overnight. […] The cell lysates were transferred into the scintillation vials containing 1 ml of scintillation fluid (Opti Phase SuperMIX, PerkinElmer, Cat No. 1200-439) and the radioactivity was counted in the Microbeta counter (1450, Wallac Jet, PerkinElmer). […] The radioactivity values obtained for the wells that contained DMSO were taken as 100% uptake of the cells. […]

Row | Compound | inhibition at 10 µM [%] | IC50 (uric acid uptake in hURAT1-HEK cells) [µM]
1 | Cc1ccc(C(=O)C(=O)O)cc1OCc1c(C)cccc1C [Cpd. FF, 2-(3-(2,6-dimethylbenzyloxy)-4-methylphenyl)-2-oxoacetic acid] | 87.4 | 1.28
2 | COc1ccc(C(=O)C(=O)O)cc1OCc1c(C)cccc1C [Cpd. FG, 2-(3-(2,6-dimethylbenzyloxy)-4-methoxyphenyl)-2-oxoacetic acid] | 67.1 | –
